# Test results as given in patent US11013750B2, “Methods for treating and preventing nociceptive pain” (Aurin Biotech Inc., priority 2017, dated 2021).
# Legend:
# [1] = tested on: SH-SY5Y human neuroblastoma cells; test: CH50 type analysis of inhibition of C3B cleavage, LDH release end point; assay type: cell-based; settings: SH-SY5Y cells with undiluted human serum, 37° C. for 3 h, read-out: concentration to inhibit cell lysis by 50% (IC 50)
# Protocol: To investigate efficacy of DAS, ATA, AQA and AHA and to inhibit C3B cleavage in SH-SY5Y human neuroblastoma cells, a CH50 type analysis was performed. Lactate dehydrogenase (LDH) release from dead cells was the end point. Reaction mixtures were: SH-SY5Y cells (10^5 cells in 1 ml DMEM/F-12 medium), 250 μL of undiluted human serum and 250 μL of DAS (3 μM), ATA (5 μM), AQA (5 μM), or AHA (5 μM). Mixtures were incubated at 37° C. for 3 h. 100 μl of cell free reaction mixtures were transferred to 96 well plates where they were mixed with a solution containing 15 μl lactate (36 mg/ml in PBS) plus 15 μl p-iodonitrotetrazolium violet (INT, 2 mg/ml in PBS). The enzymatic reaction was started by the addition of 15 μl of NAD^+/diaphorase solution (3 mg/ml NAD^+; 2.3 mg solid/ml diaphorase). After 1 h, optical densities were measured with a Model 450 microplate reader (Bio-Rad Laboratories, Richmond, Calif.) using a 490-nm filter. The amount of LDH released was expressed as a percentage of the value obtained in comparative wells where cells were 100% lysed by 0.1% Triton X-100.
# Cell lysis was concentration dependent for each of the components investigated.
# [2] = tested on: C5a formation (C5 convertase); test: Blockade of C5a formation, western blotting; assay type: cell-based; settings: SH-SY5Y cells, 10% human serum, zymosan 100 μg/ml, C1 inhibitor 5 μg/ml, 37° C. 1 h
# Protocol: To verify that each of the inhibitors was acting by inhibiting formation of C5 convertase, western blotting experiments were carried out. Results are shown in illustrated in FIG. 4. SH-SY5Y human neuroblastoma cells (2×10^5 cells in 1 ml DMEM/F-12 medium including 10% human serum) were incubated with zymosan (100 μg/ml) in 24 well plates at 37° C. for 1 h with or without DAS (3 μM), ATA (5 μM), AQA (5 μM), or AHA (5 μM). To inhibit any classical pathway activation, C1 inhibitor (5 μg/ml) was added. Supernatants were obtained by centrifugation at 4000 g for 30 min through 30 K-filters (Amicon® Ultra-15, 30,000 NMWL, Millipore, Billerica, Mass.). The filtrates were dried and added to the loading buffer for SDS-PAGE (50-mM Tris (pH 6.8), 0.1% SDS, 0.1% bromophenol blue, and 10% glycerol). Proteins were separated in 10% polyacrylamide gels at 70V for 6 h. The proteins were then transferred to polyvinylidene difluoride (PVDF) membranes (Bio-Rad, CA) at 30 mA for 2 hours. After washing with PBS-T, the membranes were treated with a mouse monoclonal C5/C5a antibody (Abcam, Cambridge Mass., 1/2000) for 15 hours at 4° C. The membranes were then treated with an appropriate HRP-conjugated anti-mouse IgG (A3682, 1/3,000; Sigma) for 3 hours at room temperature. The bands were visualized with an enhanced chemiluminescent system and exposure to photographic film (Hyperfilm ECL; Amersham Pharmacia Biotech, Little Chalfont, UK).
Compound,IC50 [1],C5a formation (western blot) ([2]; 3 μM),C5a formation (western blot) ([2]; 5 μM)
"O=C(O)C1=CC(=C(c2ccc(O)c(C(=O)O)c2)c2ccc(O)c(C(=O)O)c2)C=CC1=O [ATA, aurin tricarboxylic acid]",550 nM,,
"CC(=O)Oc1ccc(Cc2ccc(OC(C)=O)c(C(=O)O)c2)cc1C(=O)O [DAS, 5,5′-methylenebis(2-acetoxybenzoic) acid]",109 nM,C5a was no longer formed,
aurin hexacarboxylic acid [AHA],534 nM,,C5a was no longer formed
aurin quadracarboxylic acid [AQA],522 nM,,C5a was no longer formed
